From patent US20260209196A1, “AMIDINOUREA DERIVATIVES AND THEIR USE IN THE TREATMENT OF CANCER” (UNIVERSITE COTE D'AZUR, priority 2022, published 2026) come the findings set out here.

The test system of one assay is A375. Put plainly: Cell viability of A375 melanoma cells by Trypan Blue exclusion. The settings on record: Homo sapiens, A-375; 5 μM, 24 h; viable cells as mean percentage of control cells ± SEM, N=3; read-out: Viab A375 5 μM/24 h. The format is cell-based. The protocol:
The BRAFV600E mutant melanoma line A375 (CRL-1619) was purchased from ATCC (Manassas, VA, USA). The A375 were maintained in glutamine-containing DMEM supplemented with 10% heat-inactivated fetal bovine serum, penicillin (100 units/ml) and streptomycin ([…]).
Cell viability was measured by the Trypan Blue exclusion method. Briefly, cells washed with PBS were harvested by a 3-minute incubation in 0.05% trypsin before neutralization with serum containing medium. An aliquot of the cell suspension was then mixed 1:1 with a 0.4% Trypan blue solution and viable cells were counted within 5 minutes on Kova slides under an optical microscope. Results are expressed as the mean percentage of control cells±SEM. N=3
With `Cc1nc(NC(=N)NC(=O)Nc2cccc([N+](=O)[O-])c2)sc1C` [MTF512, 4,5-dimethylthiazol-2-yl-N″-(3-nitroaniline-carbonyl)-guanidine], the viability at 5 µM turned out to be 87%.
Still for that read-out and setting: the same measure for `COc1ccccc1NC(=O)NC(=N)Nc1nc(-c2ccccc2)cs1` [MTF433, N-4-phenylthiazol-2-yl-N″-(2-methoxyaniline-carbonyl)-guanidine]: 109%; for `Cc1nc(NC(=N)NC(=O)Nc2ccc(Cl)cc2)sc1C` [MTF507, 4,5-dimethylthiazol-2-yl-N″-(4-chloroaniline-carbonyl)-guanidine]: 98.9%.
`N=C(NC(=O)Nc1ccc(Cl)cc1)Nc1nc(-c2ccccc2)cs1` [MTF426, N-4-phenylthiazol-2-yl-N″-(4-chloroaniline-carbonyl)-guanidine]: the viability at 5 µM came out at 109%.
In the case of `Cc1nc(NC(=N)NC(=O)Nc2ccc(Br)cc2)sc1C` [MTF429, 4,5-dimethylthiazol-2-yl-N″-(4-bromoaniline-carbonyl)-guanidine], the viability at 5 µM worked out at 94.2%.
As to `N=C(NC(=O)Nc1cccc2ccccc12)Nc1nc(-c2ccccc2)cs1` [MTF435, N-4-phenylthiazol-2-yl-N″-(naphtalen-1-amine-carbonyl)-guanidine], the viability at 5 µM is 81%.

The same assay, now with this note: Homo sapiens, A-375; 5 μM, 48 h; viable cells as mean percentage of control cells ± SEM, N=3; read-out: Viab A375 5 μM/48 h.
For `Cc1nc(NC(=N)NC(=O)Nc2cccc([N+](=O)[O-])c2)sc1C` [MTF512, 4,5-dimethylthiazol-2-yl-N″-(3-nitroaniline-carbonyl)-guanidine], the viability at 5 µM stood at 54.3%.
Regarding `COc1ccccc1NC(=O)NC(=N)Nc1nc(-c2ccccc2)cs1` [MTF433, N-4-phenylthiazol-2-yl-N″-(2-methoxyaniline-carbonyl)-guanidine], the viability at 5 µM amounted to 43.9%.
On to `Cc1nc(NC(=N)NC(=O)Nc2ccc(Cl)cc2)sc1C` [MTF507, 4,5-dimethylthiazol-2-yl-N″-(4-chloroaniline-carbonyl)-guanidine], for which the viability at 5 µM was 139%.
For the compound `N=C(NC(=O)Nc1ccc(Cl)cc1)Nc1nc(-c2ccccc2)cs1` [MTF426, N-4-phenylthiazol-2-yl-N″-(4-chloroaniline-carbonyl)-guanidine], the viability at 5 µM stood at 46.4%.
As to `Cc1nc(NC(=N)NC(=O)Nc2ccc(Br)cc2)sc1C` [MTF429, 4,5-dimethylthiazol-2-yl-N″-(4-bromoaniline-carbonyl)-guanidine], the viability at 5 µM turned out to be 39.1%.
The same measure, in the same setting: the same measure for `N=C(NC(=O)Nc1cccc2ccccc12)Nc1nc(-c2ccccc2)cs1` [MTF435, N-4-phenylthiazol-2-yl-N″-(naphtalen-1-amine-carbonyl)-guanidine]: 84.6%.

For a further assay, the system named is NCI 60 cell panel. Put plainly: DTP-NCI assay (NCI 60 cell screen, single high dose). In kind it is cell-based. The settings on record: Homo sapiens, 48 h; single high dose 10^-5 M, full NCI 60 cell panel; growth relative to no-drug control and to time zero number of cells; read-out: DTP-NCI (mean of the percent growth of treated cells). On the procedure: The effect of 10 μM of MTF504 was monitored on a panel 60 cell lines representing nine distinct tumour types: leukemia, colon, lung, central nervous system, renal, melanoma, ovarian, breast and prostate. Briefly, the compound was sent to the US National Cancer Institute where its antineoplastic effects were monitored on the panel of cell lines after 48 hours of treatment following a standardized protocol.
All compounds submitted to the NCI 60 Cell screen are tested initially at a single high dose (10^-5 M) in the full NCI 60 cell panel. The results are reported as a mean of the percent growth of treated cells. The number reported is growth relative to the no-drug control, and relative to the time zero number of cells. This allows detection of […].
For `N=C(NC(=O)Nc1ccccc1F)Nc1nc2ccccc2s1` [MTF654, N-benzo[d]thiazol-2-yl-N″-(2-fluoroaniline-carbonyl)-guanidine], the activity at 10 µM was 20.3%.
Still for that read-out and setting: the same measure for `CCc1ccccc1NC(=O)NC(=N)Nc1nc2ccccc2s1` [MTF653, N-benzo[d]thiazol-2-yl-N″-(2-ethylaniline-carbonyl)-guanidine]: 0.27%; for `Cc1ccc(Cl)cc1NC(=O)NC(=N)Nc1nc2ccccc2s1` [MTF656, N-benzo[d]thiazol-2-yl-N″-(2-methyl-5-chloroaniline-carbonyl)-guanidine]: -19.4%.
As for `N=C(NC(=O)Nc1c(Cl)cccc1Cl)Nc1nc2ccccc2s1` [MTF650, N-benzo[d]thiazol-2-yl-N″-(2,6-dichloroaniline-carbonyl)-guanidine], the activity at 10 µM amounted to 36.4%.
Regarding `N=C(NC(=O)Nc1ccccc1[N+](=O)[O-])Nc1nc2ccccc2s1` [MTF655, N-benzo[d]thiazol-2-yl-N″-(2-nitroaniline-carbonyl)-guanidine], the activity at 10 µM is 11.6%.
Turning to `N=C(NC(=O)Nc1ccccc1Br)Nc1nc2ccccc2s1` [MTF651, N-benzo[d]thiazol-2-yl-N″-(2-bromoaniline-carbonyl)-guanidine], the activity at 10 µM is -17.8%.
Same read-out and setting: the same measure for `N=C(NC(=O)Nc1ccc(Cl)cc1Cl)Nc1nc2ccccc2s1` [MTF649, N-benzo[d]thiazol-2-yl-N″-(2,4-dichloroaniline-carbonyl)-guanidine]: -58.2%; for `CCOc1ccccc1NC(=O)NC(=N)Nc1nc2ccccc2s1` [MTF652, N-benzo[d]thiazol-2-yl-N″-(2-ethoxyaniline-carbonyl)-guanidine]: 12.6%; for `N=C(NC(=O)Nc1ccccc1Cl)Nc1nc2ccc([N+](=O)[O-])cc2s1` [MTF657, N-6-nitrobenzo[d]thiazol-2-yl-N″-(2-chloroaniline-carbonyl)-guanidine]: 31.2%.
